Experiment [1] can be described thus: Binding affinity for rodent 5-hydroxytryptamine 5A receptor.
Experiment [2] can be described thus: Binding affinity of compound towards rodent 5-hydroxytryptamine 7 receptor.

Broadly, the Ki is the dissociation constant of the complex between target and ligand, obtained from inhibition or displacement.

As for `Oc1ccc2cccc(N3CCNCC3)c2c1` [8-Piperazin-1-yl-naphthalen-2-ol], the inhibition constant Ki in experiment [1] turned out to be 0.003 µM.

Take `CCN(CC)C(=O)[C@@H]1C=C2c3cccc4[nH]c(I)c(c34)C[C@H]2N(C)C1`: the Ki in experiment [1] is < 0.01 µM.

As for `CCN(CC)C(=O)[C@@H]1C=C2c3cccc4[nH]c(Br)c(c34)C[C@H]2N(C)C1` [LSD,2-Bromo], in experiment [1], the Ki is < 0.01 µM. In experiment [2], `CCCCC(=O)c1ccc(F)cc1` [1-(4-Fluoro-phenyl)-pentan-1-one] returned a Ki of 0.14 µM.

The values are drawn from BindingDB's records for doi:10.1021/jm030030n (Virginia Commonwealth University, 2003).
